Experimental data published in US20240148821A1, “PHARMACEUTICAL USE OF CYCLIC PEPTIDE COMPOUND” (CHUGAI SEIYAKU KABUSHIKI KAISHA, priority 2021, published 2024).
Numbered stars: 1 amine (or outer) side, 2 acyl side, 3 side chain; on linkers, the order of the positions; unused ones are H or OH. Bridge positions count the residues as written; N and C are the ends. Square brackets hold non-standard residues; d marks the D form. Peptide text beside a SMILES is read from it. * marks the point of attachment. hPhe(3,5-F2-4-CF3) = N[C@@H](CCc1cc(F)c(C(F)(F)F)c(F)c1)C(=O)O; hPhe(3-Cl-4-CF3) = N[C@@H](CCc1ccc(C(F)(F)F)c(Cl)c1)C(=O)O; hPhe(3-F,4-CF3) = N[C@@H](CCc1ccc(C(F)(F)F)c(F)c1)C(=O)O; NEtPhe(4-CF3) = CCN[C@@H](Cc1ccc(C(F)(F)F)cc1)C(=O)O; NMePhe(4-CF3) = CN[C@@H](Cc1ccc(C(F)(F)F)cc1)C(=O)O; X15 = O=C([C@H](CCc1cc(Cl)c(Cl)c(Cl)c1)N[*:1])[*:2]; NEtPhe(4-Me) = CCN[C@@H](Cc1ccc(C)cc1)C(=O)O; NMeAbu(4,4,4-F3) = CN[C@@H](CC(F)(F)F)C(=O)O; NMePhe(4-Me) = CN[C@@H](Cc1ccc(C)cc1)C(=O)O; hPhe(4-Cl) = N[C@@H](CCc1ccc(Cl)cc1)C(=O)O; NMedβ3hAla = C[C@H](CC(=O)[*:2])N(C)[*:1]; NMeGly(cPent) = CN[C@H](C(=O)O)C1CCCC1; Pro(4,4-F2) = O=C(O)[C@@H]1CC(F)(F)CN1; NMeCha = CN[C@@H](CC1CCCCC1)C(=O)O; Hyp = O=C(O)[C@@H]1C[C@@H](O)CN1; NMeAhp(2) = CCCCC[C@H](NC)C(=O)O; NMeChg = CN[C@H](C(=O)O)C1CCCCC1; NMeI = CC[C@H](C)[C@H](NC)C(=O)O; NMeD = CN[C@@H](CC(=O)O)C(=O)O; NMeL = CN[C@@H](CC(C)C)C(=O)O; NMeNva = CCC[C@H](NC)C(=O)O; NMeV = CN[C@H](C(=O)O)C(C)C; Azetidin(1-yl) = C1CN(*)C1; Morpholide = C1CN(*)CCO1; NMeA = CN[C@@H](C)C(=O)O; NMeAib = CNC(C)(C)C(=O)O; Piperidide = C1CCN(*)CC1; Pyrrolidide = C1CCN(*)C1; Ac5c = NC1(C(=O)O)CCCC1; Aze = O=C(O)[C@@H]1CCN1; Ac4c = NC1(C(=O)O)CCC1; Sar = CNCC(=O)O; Propyl = CCC*

Columns and labels:
[1] = system: Human pancreatic cancer cell line AsPC-1 (G12D mutation Kras); experiment: AsPC-1 cell growth inhibition (AsPC-1 CGI); assay type: cell-based; conditions: read-out: AsPC-1 cell growth inhibition, 50% growth inhibitory concentration (IC50 value); 96 hours, CellTiter-Glo, values classified in ranges
[2] = molecular target: protein-protein interaction between Kras and SOS1 (biotin-tagged human Kras loaded with GDP, His-tagged human SOS1) (Homo sapiens (Human), UniProt P01116, G12D); experiment: Protein-protein interaction inhibition between Kras and SOS1 (KrasG12D-SOS PPI) using AlphaScreen; assay type: biochemical; conditions: AlphaScreen; biotin-tagged human Kras loaded with GDP, His-tagged human SOS1; read-out: KRAS G12D-SOS PPI IC50;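 also: kras produced in E. coli, Ni-coupled donor beads and streptavidin acceptor beads, excitation 680 nm with emission detected at 520–620 nm via singlet oxygen transfer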

Structure (SMILES)	IC50 [1] [nM]	IC50 [2] [nM]
CC[C@H](C)[C@@H]1NC(=O)[C@H](CC(C)C)N(C)C(=O)C[C@@H](C(=O)N2CCCC2)N(C)C(=O)[C@H]([C@@H](C)CC)N(C)C(=O)C2(CCCC2)NC(=O)[C@@H]2CC(F)(F)CN2C(=O)[C@H](CCc2ccc(C(F)(F)F)c(Cl)c2)NC(=O)CN(C)C(=O)[C@H](Cc2ccc(C(F)(F)F)cc2)N(C)C(=O)[C@@H]2CCN2C(=O)[C@H](C)N(C)C1=O [Compound 1242] ([NMeL]I[NMeA][Aze][NMePhe(4-CF3)][Sar][hPhe(3-Cl-4-CF3)][Pro(4,4-F2)][Ac5c][NMeI][NMeD]-Pyrrolidide; lactam N-11)	≤ 20	0.52
CC[C@H](C)[C@@H]1NC(=O)[C@H](CC(C)C)N(C)C(=O)C[C@@H](C(=O)N2CCOCC2)N(C)C(=O)[C@H]([C@@H](C)CC)N(C)C(=O)C2(CCCC2)NC(=O)[C@@H]2CC(F)(F)CN2C(=O)[C@H](CCc2cc(F)c(C(F)(F)F)c(F)c2)NC(=O)CN(C)C(=O)[C@H](Cc2ccc(C(F)(F)F)cc2)N(C)C(=O)[C@@H]2CCN2C(=O)[C@H](C)N(C)C1=O [Compound 1348] ([NMeL]I[NMeA][Aze][NMePhe(4-CF3)][Sar][hPhe(3,5-F2-4-CF3)][Pro(4,4-F2)][Ac5c][NMeI][NMeD]-Morpholide; lactam N-11)	≤ 20	0.62
CCO[C@@H]1C[C@H]2C(=O)NC3(CCC3)C(=O)N(C)[C@@H](C3CCCCC3)C(=O)N(C)[C@H](C(=O)N3CCCC3)CC(=O)N(C)[C@@H](CC(C)C)C(=O)N[C@@H]([C@@H](C)CC)C(=O)N(C)CC(=O)N(C)CC(=O)N(C)[C@@H](CC3CCCCC3)C(=O)N(C)CC(=O)N[C@@H](CCc3cc(F)c(C(F)(F)F)c(F)c3)C(=O)N2C1 [Compound 1366] ([NMeL]I[Sar][Sar][NMeCha][Sar][hPhe(3,5-F2-4-CF3)][Hyp](Et)[Ac4c][NMeChg][NMeD]-Pyrrolidide; lactam N-11)	≤ 20	0.63
CC[C@H](C)[C@@H]1NC(=O)[C@H](C)N(C)C(=O)C[C@@H](C(=O)N2CCCCC2)N(C)C(=O)[C@H](C(C)C)N(C)C(=O)C2(CCCC2)NC(=O)[C@@H]2CCCN2C(=O)[C@H](CCc2cc(Cl)c(Cl)c(Cl)c2)NC(=O)CN(C)C(=O)[C@H](CC2CCCCC2)N(C)C(=O)CN(C)C(=O)CN(C)C1=O [Compound 2068, (3S,9S,18S,21S,25S,28S,34S)-9-(cyclohexylmethyl)-28-isopropyl-7,10,13,16,21,22,26,29-octamethyl-18-[(1S)-1-methylpropyl]-25-(piperidine-1-carbonyl)-3-[2-(3,4,5-trichlorophenyl)ethyl]spiro[1,4,7,10,13,16,19,22,26,29,32-undecazabicyclo[32.3.0]heptatriacontane-31,1′-cylopentane]-2,5,8,11,14,17,20,23,27,30,33-undecone] ([NMeA]I[Sar][Sar][NMeCha][Sar][X15]P[Ac5c][NMeV][NMeD]-Piperidide; lactam N-11)	> 500	1.7
CC[C@H](C)[C@@H]1NC(=O)[C@H](CC(C)C)N(C)C(=O)C[C@@H](C(=O)N2CCOCC2)N(C)C(=O)[C@H]([C@@H](C)CC)N(C)C(=O)C2(CCCC2)NC(=O)[C@@H]2CCCN2C(=O)[C@H](CCc2cc(F)c(C(F)(F)F)c(F)c2)NC(=O)CN(C)C(=O)[C@H](Cc2ccc(C(F)(F)F)cc2)N(CC)C(=O)[C@@H]2CCN2C(=O)[C@H](C)N(C)C1=O [Compound 1364] ([NMeL]I[NMeA][Aze][NEtPhe(4-CF3)][Sar][hPhe(3,5-F2-4-CF3)]P[Ac5c][NMeI][NMeD]-Morpholide; lactam N-11)	≤ 20	1.2
CC[C@H](C)[C@@H]1NC(=O)[C@H](CC(C)C)N(C)C(=O)C[C@@H](C(=O)N2CCOCC2)N(C)C(=O)[C@H]([C@@H](C)CC)N(C)C(=O)C2(CCCC2)NC(=O)[C@@H]2CCCN2C(=O)[C@H](CCc2ccc(C(F)(F)F)c(Cl)c2)NC(=O)CN(C)C(=O)[C@H](CC2CCCCC2)N(C)C(=O)[C@@H]2CCN2C(=O)[C@H](C)N(C)C1=O [Compound 40] ([NMeL]I[NMeA][Aze][NMeCha][Sar][hPhe(3-Cl-4-CF3)]P[Ac5c][NMeI][NMeD]-Morpholide; lactam N-11)	≤ 20	0.96
CC[C@H](C)[C@@H]1NC(=O)[C@H](CC(C)C)N(C)C(=O)C[C@@H](C(=O)N2CCC2)N(C)C(=O)[C@H](C2CCCC2)N(C)C(=O)C2(CCCC2)NC(=O)[C@@H]2CCCN2C(=O)[C@H](CCc2cc(F)c(C(F)(F)F)c(F)c2)NC(=O)CN(C)C(=O)[C@H](Cc2ccc(C)cc2)N(CC)C(=O)[C@@H]2CCN2C(=O)[C@H](C)N(C)C1=O [Compound 55] ([NMeL]I[NMeA][Aze][NEtPhe(4-Me)][Sar][hPhe(3,5-F2-4-CF3)]P[Ac5c][NMeGly(cPent)][NMeD]-{Azetidin(1-yl)}; lactam N-11)	≤ 20	0.77
CCCCC[C@H]1C(=O)N[C@@H]([C@@H](C)CC)C(=O)N[C@@H](C)C(=O)N2CC[C@H]2C(=O)N(C)[C@@H](Cc2ccc(C)cc2)C(=O)N(C)CC(=O)N[C@@H](CCc2ccc(C(F)(F)F)c(Cl)c2)C(=O)N2CCC[C@H]2C(=O)NC2(CCCC2)C(=O)N(C)[C@@H]([C@@H](C)CC)C(=O)N(C)[C@H](C(=O)N(C)C)CC(=O)N1C [Compound 342] ([NMeAhp(2)]IA[Aze][NMePhe(4-Me)][Sar][hPhe(3-Cl-4-CF3)]P[Ac5c][NMeI][NMeD]-NMe2; lactam N-11)	≤ 20	0.95
CCO[C@@H]1C[C@H]2C(=O)NC3(CCCC3)C(=O)N(C)[C@@H](C3CCCCC3)C(=O)N(C)[C@H](C(=O)N3CCCC3)CC(=O)N(C)[C@@H](CC(F)(F)F)C(=O)N[C@@H]([C@@H](C)CC)C(=O)N(C)CC(=O)N(C)CC(=O)N(C)[C@@H](Cc3ccc(C)cc3)C(=O)N(C)CC(=O)N[C@@H](CCc3cc(F)c(C(F)(F)F)c(F)c3)C(=O)N2C1 [Compound 1301] ([NMeAbu(4,4,4-F3)]I[Sar][Sar][NMePhe(4-Me)][Sar][hPhe(3,5-F2-4-CF3)][Hyp](Et)[Ac5c][NMeChg][NMeD]-Pyrrolidide; lactam N-11)	≤ 20	0.67
CC[C@H](C)[C@@H]1NC(=O)[C@H](C)N(C)C(=O)C[C@@H](C(=O)N2CCCCC2)N(C)C(=O)[C@H](C(C)C)N(C)C(=O)C2(CCCC2)NC(=O)[C@@H]2CCCN2C(=O)[C@H](CCc2ccc(Cl)cc2)NC(=O)CN(C)C(=O)[C@H](CC2CCCCC2)N(C)C(=O)[C@@H]2CCN2C(=O)[C@H](C)N(C)C1=O [Compound 903] ([NMeA]I[NMeA][Aze][NMeCha][Sar][hPhe(4-Cl)]P[Ac5c][NMeV][NMeD]-Piperidide; lactam N-11)	> 500	24
CCCOC[C@@H]1NC(=O)[C@H](CC(C)C)N(C)C(=O)C[C@@H](C(=O)N2CCCCC2)N(C)C(=O)[C@H](C(C)C)N(C)C(=O)C2(CCCC2)NC(=O)[C@@H]2CCCN2C(=O)[C@H](CCc2ccc(C(F)(F)F)c(Cl)c2)NC(=O)CN(C)C(=O)[C@H](CC2CCCCC2)N(C)C(=O)[C@@H]2CCN2C(=O)[C@H](C)N(C)C1=O [Compound 1831] ([NMeL]S(Propyl)[NMeA][Aze][NMeCha][Sar][hPhe(3-Cl-4-CF3)]P[Ac5c][NMeV][NMeD]-Piperidide; lactam N-11)	> 500	71
CC[C@H](C)[C@@H]1NC(=O)[C@H](C)N(C)C(=O)C[C@@H](C)N(C)C(=O)[C@H](CC(C)C)NC(=O)C(C)(C)N(C)C(=O)[C@H](CC(C)C)NC(=O)[C@H](CCc2ccc(C(F)(F)F)c(Cl)c2)NC(=O)CN(C)C(=O)[C@H](Cc2ccc(C(F)(F)F)cc2)N(C)C(=O)CN(C)C(=O)CN(C)C1=O [Compound 1397] (cyclo(I[Sar][Sar][NMePhe(4-CF3)][Sar][hPhe(3-Cl-4-CF3)]L[NMeAib]L[NMedβ3hAla][NMeA]))	> 500	6.4
CC[C@H](C)[C@@H]1NC(=O)[C@H](CC(C)C)N(C)C(=O)C[C@@H](C(=O)N(C)C)N(C)C(=O)[C@H](C2CCCC2)N(C)C(=O)C2(CCCC2)NC(=O)[C@@H]2CCCN2C(=O)[C@H](CCc2ccc(C(F)(F)F)c(F)c2)NC(=O)CN(C)C(=O)[C@H](Cc2ccc(C)cc2)N(CC)C(=O)[C@@H]2CCN2C(=O)[C@H](C)N(C)C1=O [Compound 1152] ([NMeL]I[NMeA][Aze][NEtPhe(4-Me)][Sar][hPhe(3-F,4-CF3)]P[Ac5c][NMeGly(cPent)][NMeD]-NMe2; lactam N-11)	≤ 20	1.2
CC[C@H](C)[C@@H]1NC(=O)[C@H](CC(C)C)N(C)C(=O)C[C@@H](C(=O)N2CCCCC2)N(C)C(=O)[C@H](C(C)C)N(C)C(=O)C2(CCCC2)NC(=O)[C@@H]2CCCN2C(=O)[C@H](CCc2ccc(C(F)(F)F)c(F)c2)NC(=O)CN(C)C(=O)[C@H](CC2CCCCC2)N(C)C(=O)CN(C)C(=O)[C@@H]2CCN2C1=O [Compound 139] ([NMeL]I[Aze][Sar][NMeCha][Sar][hPhe(3-F,4-CF3)]P[Ac5c][NMeV][NMeD]-Piperidide; lactam N-11)	> 500	8.4
CCC[C@H]1C(=O)N[C@@H]([C@@H](C)CC)C(=O)N(C)[C@@H](C)C(=O)N2CC[C@H]2C(=O)N(C)[C@@H](CC2CCCCC2)C(=O)N(C)CC(=O)N[C@@H](CCc2ccc(C(F)(F)F)c(Cl)c2)C(=O)N2CCC[C@H]2C(=O)NC2(CCCC2)C(=O)N(C)[C@@H]([C@@H](C)CC)C(=O)N(C)[C@H](C(=O)N2CCCCC2)CC(=O)N1C [Compound 1132] ([NMeNva]I[NMeA][Aze][NMeCha][Sar][hPhe(3-Cl-4-CF3)]P[Ac5c][NMeI][NMeD]-Piperidide; lactam N-11)	≤ 20	1.3
